Measured values as given in ChEMBL document CHEMBL1201862, “PubChem BioAssay data set” (2004).
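Compound exposure: 48 hours, 5 concentrations, 96-well plates. Here, GI50 denotes the concentration required for 50% inhibition of growth.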 Calls of active or inactive are those of the source. Rule as the data show it: active = GI50 up to about 1.1 µM and inactive = higher.

Key:
Experiment in all cases: DTP human tumour cell line panel, 48 h
UO-31 = tested on: UO-31
SF-539 = tested on: SF-539
UACC-62 = tested on: UACC-62
HCT-116 = tested on: HCT-116
OVCAR-4 = tested on: OVCAR-4
HCC 2998 = tested on: HCC 2998
CCRF-CEM = tested on: CCRF-CEM
SK-MEL-5 = tested on: SK-MEL-5
CAKI-1 = tested on: CAKI-1
MDA-N = tested on: MDA-N
TK-10 = tested on: TK-10
K562 = tested on: K562
MDA-MB-435 = tested on: MDA-MB-435
PC-3 = tested on: PC-3
OVCAR-3 = tested on: OVCAR-3
LOX IMVI = tested on: LOX IMVI
RXF 393 = tested on: RXF 393
SR = tested on: SR
HL-60 = tested on: HL-60

| Compound | GI50 (UO-31) | GI50 (SF-539) | GI50 (UACC-62) | GI50 (HCT-116) | GI50 (OVCAR-4) | GI50 (HCC 2998) | GI50 (CCRF-CEM) | GI50 (SK-MEL-5) | GI50 (CAKI-1) | GI50 (MDA-N) | GI50 (TK-10) | GI50 (K562) | GI50 (MDA-MB-435) | GI50 (PC-3) | GI50 (OVCAR-3) | GI50 (LOX IMVI) | GI50 (RXF 393) | GI50 (SR) | GI50 (HL-60) |
| --- | --- | --- | --- | --- | --- | --- | --- | --- | --- | --- | --- | --- | --- | --- | --- | --- | --- | --- | --- |
| CCN(CC(=O)O)CC(=O)O | > 100 µM (inactive) | > 100 µM (inactive) | > 100 µM (inactive) | > 100 µM (inactive) | > 100 µM (inactive) | > 100 µM (inactive) | > 100 µM (inactive) | > 100 µM (inactive) | > 100 µM (inactive) | > 100 µM (inactive) | > 100 µM (inactive) | > 100 µM (inactive) | > 100 µM (inactive) | > 100 µM (inactive) | > 100 µM (inactive) | > 100 µM (inactive) | > 100 µM (inactive) |  |  |
| O=C1NC(=O)c2ccccc2/C1=C/c1ccc2c(c1)OCO2 | 17.2 µM (inactive) | 21.5 µM (inactive) | 22.1 µM (inactive) | 5 µM (inactive) | 49.1 µM (inactive) | 14.6 µM (inactive) | 5.92 µM (inactive) | 15.1 µM (inactive) | 24.5 µM (inactive) | 26 µM (inactive) | 55.7 µM (inactive) |  | 18.4 µM (inactive) |  | 5.37 µM (inactive) | 20.9 µM (inactive) | 3.29 µM (inactive) | 36 µM (inactive) | 2.72 µM (inactive) |
| COC(=O)[C@H](Cc1ccccc1)NC(=O)NCCN(CCNC(=O)N[C@@H](Cc1ccccc1)C(=O)OC)C(=O)N[C@@H](Cc1ccccc1)C(=O)OC | 24.3 µM (inactive) | 18.8 µM (inactive) | 25.5 µM (inactive) | 20.3 µM (inactive) | 15.2 µM (inactive) | 20.3 µM (inactive) |  | 20.7 µM (inactive) | > 45.8 µM (inactive) | 18.2 µM (inactive) | 20.1 µM (inactive) | 22.3 µM (inactive) | 22.3 µM (inactive) | 22.3 µM (inactive) | 19.5 µM (inactive) | 38.4 µM (inactive) | 16.9 µM (inactive) |  |  |
| Cc1c(/C=N/NS(=O)(=O)c2ccccc2)no[n+]1[O-] | 2.92 µM (inactive) | > 100 µM (inactive) | > 100 µM (inactive) | > 100 µM (inactive) | > 100 µM (inactive) |  | > 100 µM (inactive) | > 100 µM (inactive) | > 100 µM (inactive) |  | > 100 µM (inactive) | > 100 µM (inactive) |  |  | > 100 µM (inactive) |  | > 100 µM (inactive) | > 100 µM (inactive) | > 100 µM (inactive) |
| CN1N=C(c2ccncc2)OC1c1cccc(C(F)(F)F)c1 (stereo unspecified) | > 100 µM (inactive) | 27.5 µM (inactive) | > 100 µM (inactive) | 67.1 µM (inactive) | > 100 µM (inactive) | > 100 µM (inactive) | > 100 µM (inactive) | > 100 µM (inactive) |  | > 100 µM (inactive) | > 100 µM (inactive) | 96.8 µM (inactive) | > 100 µM (inactive) | > 100 µM (inactive) | 71.1 µM (inactive) | > 100 µM (inactive) | > 100 µM (inactive) |  | 81.3 µM (inactive) |
| CCC1(c2ccc(N3C(=O)c4cccc5cc([N+](=O)[O-])cc(c45)C3=O)cc2)CCC(=O)NC1=O (stereo unspecified) | 4.44 µM (inactive) | > 10 µM (inactive) | 21 µM (inactive) | 5.42 µM (inactive) | 12.6 µM (inactive) | 30.7 µM (inactive) | 7.74 µM (inactive) | 90.4 µM (inactive) | 14.2 µM (inactive) |  | 33 µM (inactive) | 17.1 µM (inactive) | 24.3 µM (inactive) | 20.9 µM (inactive) | 20.7 µM (inactive) | 11.9 µM (inactive) | 7.14 µM (inactive) |  |  |
| CCc1n[nH]c(=O)n1CCO | > 100 µM (inactive) | > 100 µM (inactive) | > 100 µM (inactive) | > 100 µM (inactive) | > 100 µM (inactive) | > 100 µM (inactive) |  | > 100 µM (inactive) | > 100 µM (inactive) | > 100 µM (inactive) | > 100 µM (inactive) | > 100 µM (inactive) | > 100 µM (inactive) | > 100 µM (inactive) | > 100 µM (inactive) | > 100 µM (inactive) |  |  | > 100 µM (inactive) |
| N#CCN(CC#N)C1CC=CCC1N(CC#N)CC#N (stereo unspecified) | > 100 µM (inactive) | > 100 µM (inactive) | > 100 µM (inactive) | > 100 µM (inactive) | > 100 µM (inactive) |  | > 100 µM (inactive) | > 100 µM (inactive) | > 100 µM (inactive) | > 100 µM (inactive) | > 100 µM (inactive) | > 100 µM (inactive) | > 100 µM (inactive) | > 100 µM (inactive) | > 100 µM (inactive) | > 100 µM (inactive) | > 100 µM (inactive) |  | > 100 µM (inactive) |
| CCc1n[nH]c(=O)n1O | > 100 µM (inactive) | > 100 µM (inactive) | > 100 µM (inactive) | > 100 µM (inactive) | > 100 µM (inactive) |  | > 100 µM (inactive) | > 100 µM (inactive) | > 100 µM (inactive) | > 100 µM (inactive) | > 100 µM (inactive) | > 100 µM (inactive) | > 100 µM (inactive) |  | > 100 µM (inactive) |  |  | > 100 µM (inactive) | > 100 µM (inactive) |
| COC(=NCCC1=CCCCC1)OC | 53 µM (inactive) |  | > 100 µM (inactive) | 32.8 µM (inactive) | > 100 µM (inactive) | 22 µM (inactive) | 8.71 µM (inactive) | 34.4 µM (inactive) | > 100 µM (inactive) | 95.3 µM (inactive) | > 100 µM (inactive) | 36 µM (inactive) | 71.6 µM (inactive) | 85.7 µM (inactive) | > 100 µM (inactive) |  | > 100 µM (inactive) |  |  |
| CN(C)c1ccc(/C=C2\N=C(N/N=C/c3ccc(N(C)C)cc3)NC2=O)cc1 | > 100 µM (inactive) |  | > 100 µM (inactive) | > 100 µM (inactive) | > 100 µM (inactive) | > 100 µM (inactive) | 27.5 µM (inactive) | 44.4 µM (inactive) | > 100 µM (inactive) | > 100 µM (inactive) | > 100 µM (inactive) |  | > 100 µM (inactive) | > 100 µM (inactive) | 50.9 µM (inactive) |  | 7.6 µM (inactive) |  | 29.4 µM (inactive) |
| CC(=O)N1C(NN(C)C)CCN1c1ccccc1 (stereo unspecified) |  |  | > 10 µM (inactive) |  | > 10 µM (inactive) | > 10 µM (inactive) | > 10 µM (inactive) | > 10 µM (inactive) | > 10 µM (inactive) |  | > 10 µM (inactive) | > 10 µM (inactive) | > 10 µM (inactive) | > 10 µM (inactive) |  |  | > 10 µM (inactive) | > 10 µM (inactive) | > 10 µM (inactive) |
| COc1ccc2nc3c(C(=O)NCCN(C)C)cccc3nc2c1 | 4.89 µM (inactive) | 2.51 µM (inactive) | 5.55 µM (inactive) | 3.32 µM (inactive) | 6.58 µM (inactive) | 6.76 µM (inactive) | 5.55 µM (inactive) | 4.31 µM (inactive) | 3.75 µM (inactive) |  | 3.37 µM (inactive) | 5 µM (inactive) |  |  | 10.2 µM (inactive) | 3.34 µM (inactive) |  |  | 4.23 µM (inactive) |
| COC(=O)[C@](NC(=O)OCc1ccccc1)([C@@H](C)[S+]([O-])c1ccc(C)cc1)C(F)(F)F (stereo partly specified) | 27.7 µM (inactive) |  | 37.3 µM (inactive) | 42.1 µM (inactive) | 20.8 µM (inactive) | 32.6 µM (inactive) | 22.8 µM (inactive) | 16.4 µM (inactive) | 41 µM (inactive) |  | 21.5 µM (inactive) | 34.4 µM (inactive) | 33.7 µM (inactive) | 27.9 µM (inactive) | 43.7 µM (inactive) | 33.7 µM (inactive) | 20 µM (inactive) | 22.9 µM (inactive) | 17 µM (inactive) |
| O=C(Nc1ccccc1)c1cc2c(cc1Cl)SC(NNCCO)=NS2(=O)=O | > 100 µM (inactive) | > 100 µM (inactive) | > 100 µM (inactive) | > 100 µM (inactive) | > 100 µM (inactive) | > 100 µM (inactive) | > 100 µM (inactive) | > 100 µM (inactive) | > 100 µM (inactive) |  | > 100 µM (inactive) | > 100 µM (inactive) | > 100 µM (inactive) | > 100 µM (inactive) |  | > 100 µM (inactive) | > 100 µM (inactive) | > 100 µM (inactive) | > 100 µM (inactive) |
| C[C@H]1O[C@@H](c2c(O)ccc3ccccc23)C[C@@H](N(C)C)C1O (stereo partly specified) | 41.4 µM (inactive) | > 100 µM (inactive) | 81.3 µM (inactive) | > 100 µM (inactive) | > 100 µM (inactive) | 36.6 µM (inactive) | > 100 µM (inactive) | 40.4 µM (inactive) |  | > 100 µM (inactive) | 41.3 µM (inactive) | > 100 µM (inactive) | > 100 µM (inactive) | 48.3 µM (inactive) | > 100 µM (inactive) | > 100 µM (inactive) | 20.7 µM (inactive) |  | 85.1 µM (inactive) |
| Cc1ccc2c(O)cc(-c3sc4ccccc4c3C)nc2n1 | 0.661 µM (active) |  | 16.9 µM (inactive) | 20.1 µM (inactive) | 19.1 µM (inactive) |  | 23.9 µM (inactive) |  | 21.6 µM (inactive) | 13.2 µM (inactive) | 46.6 µM (inactive) | 27.1 µM (inactive) |  |  |  | 21.8 µM (inactive) |  |  |  |
| Oc1ccc(/C=N/c2nccs2)c(O)c1 | > 100 µM (inactive) | > 100 µM (inactive) | > 100 µM (inactive) | > 100 µM (inactive) |  | 30.2 µM (inactive) |  | > 100 µM (inactive) | > 100 µM (inactive) | > 100 µM (inactive) | > 100 µM (inactive) |  |  | > 100 µM (inactive) | > 100 µM (inactive) | > 100 µM (inactive) | > 100 µM (inactive) |  |  |
